Measured values: patent US20240016822A1, “USE OF NK1 ANTAGONIST PRODRUG COMPOUND IN COMBINATION WITH 5-HT3 RECEPTOR ANTAGONIST” (Shanghai Shengdi Pharmaceutical Co., Ltd., priority 2020, published 2024)
Where two headings read alike, the source gives them in different places.

Assays:
[1] = Water solubility at different pH values; assay type: physicochemical
Protocol: • 1.1 Preparation of reagent • Reagent: NaH2PO4·2H2O • 1.2 Preparation method
The preparation according to 100 mL specification is as follows: • pH=3.0: phosphate buffer: 100 mL of 2 mmol/L NaH2PO4, adjusted to pH 3.0 with 0.1 M H3PO4. • pH=4.0: phosphate buffer: 100 mL of 2 mmol/L NaH2PO4, […] 100 mL of 2 mmol/L Na2HPO4, adjusted to pH 9.0 with 0.1 M NaOH. • 1.3 Test method
A proper amount of a test compound was weighed, and the solution was added in small batches. The mixture was stirred until the test compound was dissolved. The content of the compound in the solution was determined. The data are shown in Table 1. • 2.1 Stability test of compound
1 mg of the sample was weighed and added to a vial. The vial was placed in a vacuum bag, which was vacuumized and placed in a container filled with allochroic silica gel. The container was sealed. Two parts were prepared in parallel. Adequate parts were prepared according to sampling time points, and the two parts for each sampling time point were placed at 4° C. and room temperature, respectively. The solubility of the compound of formula (I) was determined at different pH values.

[2] = test system: red blood cells (RBCs); assay: Hemolytic effect on rabbit red blood cell suspension; assay type: cell-based; conditions: 2% rabbit RBC suspension; test sample in PBS (pH 7.4 or pH 5), 0.4-2 mg/mL; concentration up to 2 mg/mL
Protocol: 10 mL of red blood cells (RBCs) were randomly collected from the jugular vein or central auricular artery of a rabbit (EDTA whole blood), placed in a conical flask with glass beads, and shaken for 10 min to remove fibrinogen, resulting in defibrinated blood. 10 volumes of sodium chloride injection were added. The mixture was shaken uniformly and centrifuged at 1500 rpm for 10 min, and the supernatant was removed. […] The obtained red blood cells were prepared into 2% (v/v) suspension with sodium chloride injection for later use.
A test sample (the compound of formula (I)) was dissolved in PBS (pH 7.4 or pH 5), and the solution was filtered and prepared to the concentrations of 0.4 mg/mL, 0.8 mg/mL, 1.2 mg/mL, 1.6 mg/mL, and 2 mg/mL for later use.
A certain amount of the test sample solution was added to the above […] for testing in the supernatant.
The hemolytic effect of the compound provided by the present disclosure was determined by this method.
Rolapitant emulsion (formula: 4.4% polyethylene glycol 15-hydroxystearate, 1.1% medium chain triglyceride, and 0.66% soybean oil) was prepared by reference to the method described in CN102573475, and prepared with PBS to concentrations of 0.18 mg/mL, 0.09 mg/mL, 0.045 mg/mL, 0.023 mg/mL, 0.011 mg/mL, […] for later use.
The hemolytic effect was determined by the method described in Test Example 2.

[3] = Pharmacokinetic test in cynomolgus monkeys; assay type: in vivo
Protocol: With cynomolgus monkeys as test animals, the plasma concentrations of the compound of formula (I) at different time points after administration by injection were determined by LC/MS/MS. The pharmacokinetic performance of the compound was studied in cynomolgus monkeys and its pharmacokinetic characteristics were evaluated.
A certain amount of the test compound was weighed and prepared into a solution at pH 4.0 with 20 mmol/L sodium dihydrogen phosphate for later use. • 1.1 Administration Intravenous drip, injection time: about 30 min, administration dose: 3.54 mg/kg, administration concentration: […], and administration volume: 5 mL/kg. • 1.2 Operation
Blood was collected from femoral vein before administration and 5 min, 0.25 h, 0.5 h, 1 h, 2 h, 4 h, 6 h, 8 h, 10 h and 24 h after administration, about 0.6 mL for each sample. The blood samples were anticoagulated with sodium heparin and placed on ice immediately after collection. The blood samples were placed in marked centrifuge tubes after collection, and plasma was isolated by centrifugation (centrifugation conditions: 2200 g of centrifugal force, 10 min, 2-8° C.).
The contents of the compound of formula (I) and rolapitant in the plasma samples were determined by LC/MS/MS. • 1.3 Pharmacokinetic parameters

C[C@@H](OC[C@@]1(c2ccccc2)CC[C@]2(CCC(=O)N2)CN1C(=O)OCOP(=O)(O)O)c1cc(C(F)(F)F)cc(C(F)(F)F)c1 [compound of formula (I)]
solubility ([1]; pH 7.4, thermodynamic from solid, pH 7.4, read-out: Saturated solubility): 19.8 mg/mL | solubility ([1]; pH 7.4, thermodynamic from solid, pH 7.4, read-out: Solubility): 26 mg/mL | solubility ([1]; phosphate buffer, pH 9, aqueous buffer, thermodynamic from solid, pH 9.0, read-out: Saturated solubility): 21.4 mg/mL | solubility ([1]; phosphate buffer, pH 9, aqueous buffer, thermodynamic from solid, pH 9.0, read-out: Solubility): 28 mg/mL | Hemolytic effect [2]: no hemolytic effect | half-life ([3]; cynomolgus monkey, analyte compound of formula (I) in plasma, intravenous drip about 30 min, 3.54 mg/kg compound of formula (I)): 28.2 min | AUC(0-t) ([3]; cynomolgus monkey, analyte compound of formula (I) in plasma, intravenous drip about 30 min, 3.54 mg/kg compound of formula (I), read-out: AUC0-24 h): 1430 ng·h/mL | MRT inf ([3]; cynomolgus monkey, analyte compound of formula (I) in plasma, intravenous drip about 30 min, 3.54 mg/kg compound of formula (I), read-out: MRT 0-∞): 15.6 min | Conversion of prodrug into active metabolite rolapitant ([3]; cynomolgus monkeys, intravenous drip 3.54 mg/kg): quickly converted into the active metabolite rolapitant
